Format in all cases: biochemical
One experiment concerns the target T1, human Lck enzyme (Homo sapiens, UniProt P06239).
T1 construct: purchased Carna Biosciences, Inc. 08-170
Kind of experiment: Lck enzyme inhibitory activity (time-resolved fluorometry, biotinylated peptide phosphorylation). As to conditions: read-out: LCK_IC50. An outline of the steps:
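Readout pairs a europium cryptate-labelled anti-phosphotyrosine antibody with XL665-streptavidin, measured by time-resolved fluorescence. IC50 derived from percent inhibition against untreated controls.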

A further experiment addresses T2, human Src enzyme (Homo sapiens, UniProt P12931).
T2 construct: purchased Carna Biosciences, Inc. 08-173
Kind of experiment: Src enzyme inhibitory activity (time-resolved fluorometry, biotinylated peptide phosphorylation). As to conditions: read-out: SRC_IC50. Put shortly: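 Compounds were tested for blocking tyrosine phosphorylation of a biotinylated peptide substrate by recombinant human Src. Phosphorylated product was quantified by time-resolved fluorometry using europium cryptate and XL665 conjugates, and IC50 was calculated against the compound-free control.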

The next experiment has as its target T3, human Yes1 enzyme (Homo sapiens, UniProt P07947).
T3 construct: made in house
Kind of experiment: Yes1 enzyme inhibitory activity (time-resolved fluorometry, biotinylated peptide phosphorylation). The conditions noted are these: read-out: YES_IC50. An outline of the steps:
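Inhibition was expressed against a compound-free control to give IC50, using TR-FRET read-out (Eu-cryptate anti-pTyr antibody, streptavidin-XL665).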

Setting [1] is: biotinylated peptide phosphorylation.

Like-named read-outs stand apart in the source and are kept apart here.

T2 sequence (P12931 whole entry): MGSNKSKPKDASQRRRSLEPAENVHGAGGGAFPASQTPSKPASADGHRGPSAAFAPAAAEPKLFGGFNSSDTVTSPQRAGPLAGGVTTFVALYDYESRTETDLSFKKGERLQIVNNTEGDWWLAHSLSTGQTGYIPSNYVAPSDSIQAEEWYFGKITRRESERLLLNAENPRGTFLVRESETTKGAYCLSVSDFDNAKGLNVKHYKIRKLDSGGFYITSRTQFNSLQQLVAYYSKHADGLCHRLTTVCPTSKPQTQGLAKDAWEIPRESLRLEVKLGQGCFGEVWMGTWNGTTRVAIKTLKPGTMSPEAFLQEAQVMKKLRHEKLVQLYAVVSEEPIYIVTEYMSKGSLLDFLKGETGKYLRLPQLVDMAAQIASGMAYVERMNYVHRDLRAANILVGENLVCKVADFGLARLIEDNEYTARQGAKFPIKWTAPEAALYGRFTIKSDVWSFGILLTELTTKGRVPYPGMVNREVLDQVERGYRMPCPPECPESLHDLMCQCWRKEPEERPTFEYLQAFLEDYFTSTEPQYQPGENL
T3 sequence (P07947 whole entry): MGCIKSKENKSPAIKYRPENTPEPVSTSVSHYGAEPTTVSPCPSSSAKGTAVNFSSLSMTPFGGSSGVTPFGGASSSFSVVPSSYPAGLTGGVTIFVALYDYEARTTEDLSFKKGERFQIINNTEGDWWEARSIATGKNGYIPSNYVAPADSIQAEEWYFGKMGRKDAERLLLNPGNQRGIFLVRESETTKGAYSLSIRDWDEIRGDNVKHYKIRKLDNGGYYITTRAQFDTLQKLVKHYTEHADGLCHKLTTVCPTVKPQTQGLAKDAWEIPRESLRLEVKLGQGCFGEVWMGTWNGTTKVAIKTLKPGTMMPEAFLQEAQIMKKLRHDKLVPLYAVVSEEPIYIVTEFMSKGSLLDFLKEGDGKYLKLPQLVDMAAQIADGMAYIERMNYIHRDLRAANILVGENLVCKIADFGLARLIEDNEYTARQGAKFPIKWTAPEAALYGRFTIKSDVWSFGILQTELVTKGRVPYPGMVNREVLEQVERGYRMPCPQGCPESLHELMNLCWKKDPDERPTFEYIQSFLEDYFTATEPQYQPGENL
T1 sequence (P06239 whole entry): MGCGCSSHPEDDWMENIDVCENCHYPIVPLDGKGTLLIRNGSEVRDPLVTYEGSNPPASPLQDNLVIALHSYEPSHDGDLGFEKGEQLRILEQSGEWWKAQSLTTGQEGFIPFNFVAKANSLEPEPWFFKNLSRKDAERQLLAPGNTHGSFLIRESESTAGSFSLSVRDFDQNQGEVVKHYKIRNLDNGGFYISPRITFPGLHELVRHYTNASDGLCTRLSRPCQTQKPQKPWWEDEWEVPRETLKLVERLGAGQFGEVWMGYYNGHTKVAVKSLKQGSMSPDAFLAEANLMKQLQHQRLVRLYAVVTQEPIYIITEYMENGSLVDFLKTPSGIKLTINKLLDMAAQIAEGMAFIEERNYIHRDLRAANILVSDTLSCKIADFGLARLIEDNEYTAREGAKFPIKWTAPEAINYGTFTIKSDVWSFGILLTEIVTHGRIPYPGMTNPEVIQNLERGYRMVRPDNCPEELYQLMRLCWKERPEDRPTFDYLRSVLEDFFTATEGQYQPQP

Consider `Cc1cc(Oc2ccccc2F)ccc1-n1ncc(C(=O)c2cc3cc(OC(F)F)c(N4CCC(N5CCOCC5)CC4)cc3[nH]2)c1N` [Example 4-25-032, [5-amino-1-[4-(2-fluorophenoxy)-2-methylphenyl]pyrazol-4-yl]-[5-(difluoromethoxy)-6-(4-morpholin-4-ylpiperidin-1-yl)-1H-indol-2-yl]methanone], for which the IC50 at human Lck enzyme (setting [1]) stood at 11 nM; on human Src enzyme (setting [1]), 48 nM; on human Yes1 enzyme (setting [1]), 0.83 nM.
The corresponding values for `Cc1cc(Oc2ccccc2F)ccc1-n1ncc(C(=O)c2cc3cc(F)c(NS(=O)(=O)CC(=O)N4CCCC4)cc3[nH]2)c1N` [Example 4-26-001, N-(2-(5-amino-1-(4-(2-fluorophenoxy)-2-methylphenyl)-1H-pyrazole-4-carbonyl)-5-fluoro-1H-indol-6-yl)-2-oxo-2-(pyrrolidin-1-yl)ethanesulfonamide] are 7.6 nM, 26 nM and 1.5 nM.
For the molecule `CC(C)N1CCC(c2cc3cc(C(=O)c4cnn(-c5ccc(Oc6ccccc6Cl)cc5)c4N)[nH]c3cc2F)CC1` [Example 5-1-001, [5-amino-1-[4-(2-chlorophenoxy)phenyl]pyrazol-4-yl]-[6-fluoro-5-(1-propan-2-ylpiperidin-4-yl)-1H-indol-2-yl]methanone], the IC50 at human Lck enzyme worked out at 2.9 nM; on human Src enzyme, 7.6 nM; at human Yes1 enzyme it was 1.1 nM.
The corresponding values for `CC(C)N1CCC(c2cc3cc(C(=O)c4cnn(-c5ccc(Oc6cccc(F)c6)cc5F)c4N)[nH]c3cc2F)CC1` [Example 5-1-002, [5-amino-1-[2-fluoro-4-(3-fluorophenoxy)phenyl]pyrazol-4-yl]-[6-fluoro-5-(1-propan-2-ylpiperidin-4-yl)-1H-indol-2-yl]methanone] are 2.2 nM, 6.1 nM and 0.87 nM.
The corresponding values for `CC(C)N1CCC(c2cc3cc(C(=O)c4cnn(-c5ccc(Oc6cccc(Cl)c6)cc5F)c4N)[nH]c3cc2F)CC1` [Example 5-1-003, [5-amino-1-[4-(3-chlorophenoxy)-2-fluorophenyl]pyrazol-4-yl]-[6-fluoro-5-(1-propan-2-ylpiperidin-4-yl)-1H-indol-2-yl]methanone] are 4.7 nM, 26 nM and 2 nM.
Take `CC(C)N1CCC(c2cc3cc(C(=O)c4cnn(-c5ccc(Oc6ccccc6F)cc5)c4N)[nH]c3cc2F)CC1` [Example 5-1-004, [5-amino-1-[4-(2-fluorophenoxy)phenyl]pyrazol-4-yl]-[6-fluoro-5-(1-propan-2-ylpiperidin-4-yl)-1H-indol-2-yl]methanone]: the IC50 on human Lck enzyme was found to be 2.8 nM; on human Src enzyme it was 3.6 nM; on human Yes1 enzyme it was 0.78 nM.
The corresponding values for `Cc1cc(Oc2cccc(F)c2)ccc1-n1ncc(C(=O)c2cc3cc(C4CCN(C(C)C)CC4)c(F)cc3[nH]2)c1N` [Example 5-1-005, [5-amino-1-[4-(3-fluorophenoxy)-2-methylphenyl]pyrazol-4-yl]-[6-fluoro-5-(1-propan-2-ylpiperidin-4-yl)-1H-indol-2-yl] methanone] are 4.2 nM, 37 nM and 0.71 nM.
The corresponding values for `CC(C)N1CCC(c2cc3[nH]c(C(=O)c4cnn(-c5ccc(Oc6cccc(F)c6)cc5F)c4N)cc3cc2F)CC1` [Example 5-1-006, [5-amino-1-[2-fluoro-4-(3-fluorophenoxy)phenyl]pyrazol-4-yl]-[5-fluoro-6-(1-propan-2-ylpiperidin-4-yl)-1H-indol-2-yl]methanone] are 6 nM, 56 nM and 0.73 nM.
The corresponding values for `CC(C)N1CCC(c2cc3[nH]c(C(=O)c4cnn(-c5ccc(Oc6ccccc6F)cc5)c4N)cc3cc2F)CC1` [Example 5-1-007, [5-amino-1-[4-(2-fluorophenoxy)phenyl]pyrazol-4-yl]-[5-fluoro-6-(1-propan-2-ylpiperidin-4-yl)-1H-indol-2-yl]methanone] are 2.2 nM, 11 nM and 1.1 nM.
For the molecule `CC(C)N1CCC(c2cc3[nH]c(C(=O)c4cnn(-c5ccc(Oc6cccc(Cl)c6)cc5)c4N)cc3cc2F)CC1` [Example 5-1-008, [5-amino-1-[4-(3-chlorophenoxy)phenyl]pyrazol-4-yl]-[5-fluoro-6-(1-propan-2-ylpiperidin-4-yl)-1H-indol-2-yl]methanone], the IC50 on human Lck enzyme is 4.6 nM; at human Src enzyme it was 60 nM; on human Yes1 enzyme, 2.7 nM.
The corresponding values for `Cc1cc(Oc2cccc(F)c2)ccc1-n1ncc(C(=O)c2cc3cc(F)c(C4CCN(C(C)C)CC4)cc3[nH]2)c1N` [Example 5-1-009, [5-amino-1-[4-(3-fluorophenoxy)-2-methylphenyl]pyrazol-4-yl]-[5-fluoro-6-(1-propan-2-ylpiperidin-4-yl)-1H-indol-2-yl] methanone] are 2.8 nM, 9.3 nM and 1.9 nM.
The corresponding values for `CC(C)N1CCC(c2cc3[nH]c(C(=O)c4cnn(-c5ccc(Oc6cccc(Cl)c6)cc5F)c4N)cc3cc2F)CC1` [Example 5-1-010, [5-amino-1-[4-(3-chlorophenoxy)-2-fluorophenyl]pyrazol-4-yl]-[5-fluoro-6-(1-propan-2-ylpiperidin-4-yl)-1H-indol-2-yl]methanone] are 3.6 nM, 38 nM and 2.5 nM.
Regarding `CC(C)N1CCC(c2cc3[nH]c(C(=O)c4cnn(-c5ccc(Oc6cccc(F)c6F)cc5F)c4N)cc3cc2F)CC1` [Example 5-1-011, [5-amino-1-[4-(2,3-difluorophenoxy)-2-fluorophenyl]pyrazol-4-yl]-[5-fluoro-6-(1-propan-2-ylpiperidin-4-yl)-1H-indol-2-yl]methanone], the IC50 on human Lck enzyme is 2.6 nM; on human Src enzyme, 14 nM; on human Yes1 enzyme it was 0.86 nM.
The corresponding values for `Cc1cc(-n2ncc(C(=O)c3cc4cc(C)c(C5CCN(C(C)C)CC5)cc4[nH]3)c2N)ccc1Oc1ccccc1F` [Example 5-1-012, [5-amino-1-[4-(2-fluorophenoxy)-3-methylphenyl]pyrazol-4-yl]-[5-methyl-6-(1-propan-2-ylpiperidin-4-yl)-1H-indd-2-yl] methanone] are 23 nM, 310 nM and 2.5 nM.
The corresponding values for `CC(C)N1CCC(c2cc3[nH]c(C(=O)c4cnn(-c5ccc(Oc6cccc(F)c6F)cc5)c4N)cc3cc2F)CC1` [Example 5-1-013, [5-amino-1-[4-(2,3-difluorophenoxy)phenyl]pyrazol-4-yl]-[5-fluoro-6-(1-propan-2-ylpiperidin-4-yl)-1H-indol-2-yl]methanone] are 2.5 nM, 30 nM and 1.6 nM.
Take `CC(C)N1CCC(c2cc3[nH]c(C(=O)c4cnn(-c5ccc(Oc6cccc(F)c6)cc5)c4N)cc3cc2F)CC1` [Example 5-1-014, [5-amino-1-[4-(3-fluorophenoxy)phenyl]pyrazol-4-yl]-[5-fluoro-6-(1-propan-2-ylpiperidin-4-yl)-1H-indol-2-yl]methanone]: the results for the IC50 at human Lck enzyme, on human Src enzyme and at human Yes1 enzyme were 3 nM, 43 nM and 2.4 nM, respectively.
In the case of `CC(C)N1CCC(c2cc3[nH]c(C(=O)c4cnn(-c5ccc(Oc6ccccc6Cl)cc5)c4N)cc3cc2F)CC1` [Example 5-1-015, [5-amino-1-[4-(2-chlorophenoxy)phenyl]pyrazol-4-yl]-[5-fluoro-6-(1-propan-2-ylpiperidin-4-yl)-1H-indol-2-yl]methanone], the IC50 at human Lck enzyme was determined as 2.2 nM; at human Src enzyme it was 23 nM; on human Yes1 enzyme it was 1.5 nM.
The corresponding values for `CS(=O)(=O)Nc1cc2[nH]c(C(=O)c3cnn(-c4ccc(Oc5cccc(F)c5F)cc4Cl)c3N)cc2cc1F` [Example 5-1-016, N-[2-[5-amino-1-[2-chloro-4-(2,3-difluorophenoxy)phenyl]pyrazole-4-carbonyl]-5-fluoro-1H-indol-6-yl]methanesulfonamide] are 25 nM, 93 nM and 0.72 nM.
The corresponding values for `Cc1cc(-n2ncc(C(=O)c3cc4cc(F)c(NS(C)(=O)=O)cc4[nH]3)c2N)ccc1Oc1ccccc1F` [Example 5-1-017, N-[2-[5-amino-1-[4-(2-fluorophenoxy)-3-methylphenyl]pyrazole-4-carbonyl]-5-fluoro-1H-indol-6-yl]methanesulfonamide] are 630 nM, 2400 nM and 4.5 nM.
The corresponding values for `CS(=O)(=O)Nc1cc2[nH]c(C(=O)c3cnn(-c4ccc(Oc5ccccc5F)cc4Cl)c3N)cc2cc1F` [Example 5-1-018, N-[2-[5-amino-1-[2-chloro-4-(2-fluorophenoxy)phenyl]pyrazole-4-carbonyl]-5-fluoro-1H-indol-6-yl]methanesulfonamide] are 33 nM, 110 nM and 2.2 nM.
As to `Nc1c(C(=O)c2cc3cc(F)c(NS(=O)(=O)C4CC4)cc3[nH]2)cnn1-c1c(F)cc(Oc2ccccc2F)cc1F` [Example 5-1-019, N-[2-[5-amino-1-[2,6-difluoro-4-(2-fluorophenoxy)phenyl]pyrazole-4-carbonyl]-5-fluoro-1H-indol-6-yl] cyclopropanesulfonamide], the IC50 stood at 54 nM on human Lck enzyme, 120 nM on human Src enzyme and 2.8 nM on human Yes1 enzyme.

These data come from patent US10479780B2, “Aminopyrazole derivatives” (Chugai Seiyaku Kabushiki Kaisha, priority 2015, dated 2019).
